# Measured values from patent US8846746B2, “Pyrazole compound and pharmaceutical use thereof” (Japan Tobacco Inc., priority 2011, dated 2014).
# Molecular target: human SGLT1 (Homo sapiens (Human), UniProt P13866)
# Experiment: SGLT1 inhibitory activity: 14C-AMG uptake into CHO-K1 cell line stably expressing human SGLT1
# Format: cell-based
# Settings: for IC50: 14C-AMG uptake; for inhibition at 0.1 µM: CHO-K1, at 0.1 uM; for inhibition at 0.3 µM: CHO-K1, at 0.3 uM
# In short: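 Human SGLT1 was stably expressed in CHO-K1 cells. Cells were first held 20 min in sodium-free buffer, then exposed to compound in Na(+)/BSA buffer with tracer and AMG (2 mM in the added solution).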
# [1] = CHO-K1 cells stably expressing human SGLT1
# [2] = CHO-K1 cells expressing human SGLT1
# human SGLT1, sequence (P13866 whole entry): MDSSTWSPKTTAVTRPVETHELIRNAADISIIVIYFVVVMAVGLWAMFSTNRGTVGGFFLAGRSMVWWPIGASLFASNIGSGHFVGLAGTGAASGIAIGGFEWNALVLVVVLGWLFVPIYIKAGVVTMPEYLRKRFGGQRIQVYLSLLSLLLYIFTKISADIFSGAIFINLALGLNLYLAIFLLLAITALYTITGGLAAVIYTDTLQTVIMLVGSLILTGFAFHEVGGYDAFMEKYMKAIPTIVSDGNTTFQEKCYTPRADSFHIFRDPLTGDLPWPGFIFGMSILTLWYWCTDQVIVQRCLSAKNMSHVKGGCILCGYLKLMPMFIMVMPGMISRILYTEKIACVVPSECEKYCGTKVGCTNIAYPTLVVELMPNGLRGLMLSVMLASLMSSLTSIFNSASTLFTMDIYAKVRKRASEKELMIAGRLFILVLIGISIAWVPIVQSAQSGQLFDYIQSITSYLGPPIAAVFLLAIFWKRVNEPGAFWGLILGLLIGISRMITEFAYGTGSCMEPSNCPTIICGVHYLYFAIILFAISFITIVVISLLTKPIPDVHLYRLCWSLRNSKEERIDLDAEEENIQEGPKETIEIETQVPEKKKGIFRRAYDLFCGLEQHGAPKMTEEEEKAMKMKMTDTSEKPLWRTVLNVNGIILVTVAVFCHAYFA
SMILES,IC50 [1] [nM],IC50 [2] [nM],further results
O=C1C[C@H](C(=O)Nc2cc(-c3cccc(COC(C(F)(F)F)C(F)(F)F)c3)n(-c3ccc(Cl)cc3)n2)CN1 [Example 576],19,–,–
CCCO[C@@H](C)c1cccc(-c2cc(NC(=O)[C@@H]3CNC(=O)C3)nn2-c2ccccc2)c1 [Example 396],31,–,–
Cc1ccccc1-n1nc(NC(=O)[C@H]2CNC(=O)[C@@H]2C)cc1-c1cccc(OCC(F)(F)F)c1 [Example 227],–,2.1,–
CCCc1cccc(-c2cc(NC(=O)[C@H]3CNC(=O)C3)nn2C(F)(F)F)c1 [Example 86],–,54,–
COCCOc1cccc(-n2nc(NC(=O)[C@@H]3CNC(=O)C3)cc2-c2cccc(OC(F)(F)F)c2)c1F [Example 479],–,–,inhibition at 0.1 µM: 46%
CC(C)Oc1cc(F)cc(-n2nc(NC(=O)[C@@H]3CNC(=O)C3)cc2-c2cccc(OC(F)(F)F)c2)c1 [Example 526],9.2,–,–
C[C@@H](OCc1cccc(-c2cc(NC(=O)[C@H]3CCC(=O)N3)nn2-c2ccccc2)c1)C(F)(F)F [Example 556],–,–,inhibition at 0.1 µM: 23%
CC(C)S(=O)(=O)c1cccc(-c2cc(NC(=O)[C@@H]3CNC(=O)C3)nn2-c2ccccc2)c1 [Example 568],–,–,inhibition at 0.3 µM: 27%
CCCc1cc(F)cc(-c2cc(NC(=O)[C@H]3CNC(=O)C3)nn2-c2ccccc2)c1 [Example 74],–,3.1,–
"O=C1CCC(C(=O)Nc2cc(-c3cccc(COCC(F)(F)F)c3)n(-c3ccccc3)n2)CN1 (single isomer, unassigned) [Example 560]",24,–,–
O=C1C[C@H](C(=O)Nc2cc(-c3cc(Cl)cc(COCC(F)(F)F)c3)n(-c3ccccc3F)n2)CN1 [Example 587],40,–,–
C[C@@H](OCc1cc(F)cc(-c2cc(NC(=O)[C@@H]3CNC(=O)C3)nn2C2CCOCC2)c1)C(F)(F)F [Example 583],–,–,inhibition at 0.1 µM: 48%
O=C1C[C@H](C(=O)Nc2cc(-c3cccc(CO[C@H]4CCOC4)c3)n(-c3ccccc3)n2)CN1 [Example 537],–,–,inhibition at 0.1 µM: 1%
CC(C)(C)c1cccc(-c2cc(NC(=O)[C@H]3CNC(=O)C3)nn2CCc2ccccc2)c1 [Example 109],–,65,–
CCCc1cccc(-c2cc(NC(=O)[C@H]3CNC(=O)N3CC(=O)O)nn2-c2ccccc2)c1 [Example 348],–,–,inhibition at 0.3 µM: 26%
C[C@H]1C(=O)NC[C@@H]1C(=O)Nc1cc(-c2cccc(OC(F)(F)F)c2)n(-c2ccc(Cl)cc2)n1 [Example 152],–,9.3,–
COc1cc(-n2nc(NC(=O)[C@@H]3CNC(=O)C3)cc2-c2cccc(CO[C@H](C)C(F)(F)F)c2)ccc1F [Example 457],3.7,–,–
O=C1NC[C@H](C(=O)Nc2cc(-c3cccc(COCC(F)(F)F)c3)n(-c3ccccc3)n2)N1 [Example 349],72,–,–
O=C1C[C@@H](C(=O)Nc2cc(-c3cccc(OC(F)(F)F)c3)n(CC3CCOCC3)n2)CN1 [Example 199],–,–,inhibition at 0.3 µM: 40%
"CCCc1cccc(-c2cc(NC(=O)C3CC(=O)NC3C)nn2-c2ccccc2)c1 (single isomer, unassigned) [Example 404]",18,–,–
Cc1cccc(-c2cc(NC(=O)[C@H]3CNC(=O)C3)nn2-c2ccccc2)c1 [Example 57],–,230,–
CCC(CC)OCc1cccc(-c2cc(NC(=O)[C@@H]3CNC(=O)C3)nn2-c2ccccc2)c1 [Example 332],22,–,–
"CC(C)(C)CCOc1cccc(-c2cc(NC(=O)C3CCC(=O)NC3)nn2-c2ccccc2)c1 (single isomer, unassigned) [Example 342]",45,–,–
O=C1C[C@H](C(=O)Nc2cc(-c3cc(Cl)cc(COC(C(F)(F)F)C(F)(F)F)c3)n(-c3ccccc3)n2)CN1 [Example 579],23,–,–
CC(C)(OCc1cccc(-c2cc(NC(=O)[C@H]3CNC(=O)N3)nn2-c2ccc(Cl)cc2)c1)C(F)(F)F [Example 599],27,–,–

SMILES,IC50 [1] [nM],IC50 [2] [nM],further results
O=C1C[C@@H](C(=O)Nc2cc(-c3cccc(OCCC(F)(F)F)c3)n(-c3ccc(Cl)cc3)n2)CN1 [Example 160],–,11,–
CCCc1cccc(-c2cc(NC(=O)[C@H]3CNC(=O)C3)nn2-c2ccccc2)c1 [Example 22],–,4.7,–
CC(C)CS(=O)(=O)c1cccc(-c2cc(NC(=O)[C@@H]3CNC(=O)C3)nn2-c2ccccc2)c1 [Example 553],–,–,inhibition at 0.1 µM: 31%
CC(C)Oc1cc(-n2nc(NC(=O)[C@@H]3CNC(=O)C3)cc2-c2cccc(OC(F)(F)F)c2)ccc1F [Example 422],14,–,–
C[C@@H](OCc1cccc(-c2cc(NC(=O)[C@@H]3CNC(=O)C3)nn2-c2cccc(O)c2)c1)C(F)(F)F [Example 441],9,–,–
CCCc1cc(C(=O)O)cc(-c2cc(NC(=O)[C@H]3CNC(=O)C3)nn2-c2ccccc2)c1 [Example 145],–,–,"inhibition at 1 µM (CHO-K1, at 1 uM): 43%"
C[C@H]1C(=O)NC[C@@H]1C(=O)Nc1cc(-c2cccc(OC(F)(F)F)c2)n(CC2CCOCC2)n1 [Example 200],–,120,–
CCCc1cccc(-c2cc(NC(=O)[C@H]3CNC(=O)C3)nn2CCC2CCCCC2)c1 [Example 113],–,12,–
CCC(F)(F)c1cccc(-c2cc(NC(=O)[C@H]3CNC(=O)C3)nn2-c2ccc(F)cc2)c1 [Example 173],–,13,–
CCCc1cccc(-c2cc(NC(=O)[C@@H]3CNC(=O)C3)nn2-c2cccc(O)c2)c1 [Example 341],60,–,–
O=C1C[C@@H](C(=O)Nc2cc(-c3cccc(OC(F)(F)F)c3)n(CCC(F)(F)F)n2)CN1 [Example 190],–,130,–
CCCc1cccc(-c2cc(NC(=O)[C@@H]3CNC(=O)C3)nn2C2CCCCCC2)c1 [Example 69],–,18,–
CCCOc1cccc(-n2nc(NC(=O)[C@@H]3CNC(=O)C3)cc2-c2cccc(CO[C@H](C)C(F)(F)F)c2)c1 [Example 453],1.7,–,–
C[C@H]1C(=O)NC[C@@H]1C(=O)Nc1cc(-c2cccc(C(F)(F)F)c2)n(-c2ccccc2)n1 [Example 207],–,4.7,–
Cc1ccccc1-c1cc(NC(=O)[C@H]2CNC(=O)C2)nn1-c1ccccc1 [Example 56],–,14300,–
"O=C1CCC(C(=O)Nc2cc(-c3cccc(OC(F)(F)F)c3)n(C3CCOCC3)n2)CN1 (single isomer, unassigned) [Example 189]",–,200,–
"O=C1CCC(C(=O)Nc2cc(-c3cccc(OC(F)(F)F)c3)n(-c3ccc(F)cc3)n2)CN1 (single isomer, unassigned) [Example 165]",–,22,–
CCC(F)(F)c1cccc(-c2cc(NC(=O)[C@H]3CNC(=O)[C@@H]3C)nn2-c2ccc(F)cc2)c1 [Example 172],–,5.5,–
O=C1C[C@@H](C(=O)Nc2cc(-c3cccc(OCCC(F)(F)F)c3)n(-c3ccccc3)n2)CN1 [Example 149],–,9.5,–
CCCc1cccc(-c2cc(NC(=O)[C@@H]3CNC(=O)C3)nn2C2CCCC2)c1 [Example 65],–,40,–
"CC(C)(C)OCc1cccc(-c2cc(NC(=O)C3CCC(=O)NC3)nn2-c2ccccc2)c1 (single isomer, unassigned) [Example 336]",25,–,–
CCCc1cccc(-c2cc(NC(=O)[C@H]3CNC(=O)C3)nn2CC2CCCCC2)c1 [Example 111],–,46,–
C[C@H]1C(=O)NC[C@@H]1C(=O)Nc1cc(-c2cccc(C(F)(F)F)c2)n(-c2cccc(F)c2)n1 [Example 209],–,9.2,–
CCC(F)(F)c1cccc(-c2cc(NC(=O)[C@H]3CNC(=O)C3)nn2-c2cccc(OC)c2)c1 [Example 164],–,2.6,–
Cc1cc(CO[C@H](C)C(F)(F)F)cc(-c2cc(NC(=O)[C@@H]3CNC(=O)C3)nn2-c2ccccc2)c1 [Example 410],22,–,–

# Continued, in another order:
IC50 [1] [nM],IC50 [2] [nM],SMILES,further results
4.7,–,CCCc1cccc(-c2cc(NC(=O)[C@H]3CNC(=O)N3CC)nn2-c2ccccc2)c1 [Example 303],–
–,1.3,C[C@H]1C(=O)NC[C@@H]1C(=O)Nc1cc(-c2cccc(OC(F)(F)F)c2)n(-c2ccccc2Cl)n1 [Example 193],–
20,–,O=C1NC[C@H](C(=O)Nc2cc(-c3cccc(COC(C(F)(F)F)C(F)(F)F)c3)n(-c3ccccc3)n2)O1 [Example 366],–
40,–,O=C1C[C@H](C(=O)Nc2cc(-c3cc(Cl)cc(COCC(F)(F)F)c3)n(-c3cccc(F)c3)n2)CN1 [Example 588],–
8.2,–,CCCc1cccc(-c2cc(NC(=O)[C@@H]3CNC(=O)C3)nn2-c2cccc(C=C(C)C)c2)c1 [Example 493],–
–,3.5,CC(C)(C)c1cccc(-c2cc(NC(=O)[C@@H]3CNC(=O)C3)nn2-c2ccccc2)c1 [Example 26],–
45,–,COC(C)(C)c1cccc(-c2cc(NC(=O)[C@@H]3CNC(=O)N3)nn2-c2ccccc2)c1 [Example 270],–
–,6.7,CCCc1cccc(-c2cc(NC(=O)[C@H]3CNC(=O)C3)nn2C2CCCCCC2)c1 [Example 68],–
–,1900,O=C1C[C@H](C(=O)Nc2cc(C3CCCCC3)n(-c3ccccc3)n2)CN1 [Example 41],–
6.3,–,C[C@@H](OCc1cccc(-c2cc(NC(=O)[C@@H]3CNC(=O)C3)nn2-c2ccccc2)c1)C(F)(F)F [Example 334],–
4.2,–,COc1cccc(-n2nc(NC(=O)[C@@H]3CNC(=O)C3)cc2-c2cccc(CO[C@H](C)C(F)(F)F)c2)c1F [Example 484],–
–,420,O=C1C[C@@H](C(=O)Nc2cc(C3=CCCCC3)n(-c3ccccc3)n2)CN1 [Example 47],–
11,–,C[C@@H](OCc1cccc(-c2cc(NC(=O)C3CCC(=O)NC3)nn2-c2ccccc2)c1)C(F)(F)F (some centres unmarked) [Example 565],–
–,3.4,CC(C)C(F)(F)c1cccc(-c2cc(NC(=O)[C@H]3CNC(=O)C3)nn2-c2ccc(Cl)cc2)c1 [Example 158],–
–,3500,Cc1ccc(-c2cc(NC(=O)[C@H]3CNC(=O)C3)nn2-c2ccccc2)cc1 [Example 58],–
3.1,–,C[C@@H](OCc1cccc(-c2cc(NC(=O)[C@@H]3CNC(=O)C3)nn2-c2ccccc2Cl)c1)C(F)(F)F [Example 475],–
66,–,CC(C)(OCc1cc(Cl)cc(-c2cc(NC(=O)[C@H]3CNC(=O)N3)nn2-c2ccccc2)c1)C(F)(F)F [Example 594],–
–,3.3,CC(C)(C)c1cccc(-c2cc(NC(=O)[C@H]3CNC(=O)C3)nn2-c2ccc(Cl)cc2)c1 [Example 153],–
